Data reported in article PMC6925656 (Clinical pharmacology and therapeutics, 2019).

Assays:
human OCT1 [1] = target: T1, human OCT1 (Homo sapiens, UniProt O15245); assay: Uptake into OCT1-expressing or nonexpressing Xenopus laevis oocytes
T1 sequence (O15245 1-554): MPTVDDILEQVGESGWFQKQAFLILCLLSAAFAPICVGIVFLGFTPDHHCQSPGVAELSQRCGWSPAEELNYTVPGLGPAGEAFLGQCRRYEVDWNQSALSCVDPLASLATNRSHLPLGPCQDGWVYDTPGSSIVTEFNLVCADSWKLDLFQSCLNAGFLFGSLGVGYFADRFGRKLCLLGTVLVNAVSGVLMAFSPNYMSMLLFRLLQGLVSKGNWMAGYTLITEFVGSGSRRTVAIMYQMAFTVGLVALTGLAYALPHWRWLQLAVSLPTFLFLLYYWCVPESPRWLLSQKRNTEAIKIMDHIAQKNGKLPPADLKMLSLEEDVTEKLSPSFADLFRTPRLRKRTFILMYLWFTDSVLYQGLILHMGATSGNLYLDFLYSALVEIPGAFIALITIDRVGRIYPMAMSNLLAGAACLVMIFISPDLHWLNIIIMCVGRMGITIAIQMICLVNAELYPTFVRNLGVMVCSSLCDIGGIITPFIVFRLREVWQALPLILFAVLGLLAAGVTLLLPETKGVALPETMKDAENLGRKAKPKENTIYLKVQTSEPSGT

HepG2 cells = assay: Uptake into HepG2 liver cancer cells; type: in vitro ADME, human
Huh7 cells = assay: Uptake into Huh7 liver cancer cells; type: in vitro ADME, human
human OCT1 [2] = target: T1, human OCT1; assay: Uptake into HEK293 cells expressing human OCT1
HeLa cells = assay: Sorafenib uptake and membrane binding in HeLa cells; type: in vitro ADME; conditions: for Interference with non-specific membrane binding of sorafenib: isolated membrane fraction
Oct1 [3] = assay: Pharmacokinetics in Oct1-deficient versus wild-type mice; conditions: for Pharmacokinetic parameters, Oct1-deficient vs wild-type mice: sorafenib single oral dose 10 mg/kg, plasma
human OCT3 = target: T2, human OCT3 (Homo sapiens, UniProt O75751); assay: Sorafenib transport in HEK293 cells overexpressing human OCT3; type: in vitro ADME; conditions: HEK293 cells overexpressing human OCT3, Figure S1
T2 sequence (O75751 1-556): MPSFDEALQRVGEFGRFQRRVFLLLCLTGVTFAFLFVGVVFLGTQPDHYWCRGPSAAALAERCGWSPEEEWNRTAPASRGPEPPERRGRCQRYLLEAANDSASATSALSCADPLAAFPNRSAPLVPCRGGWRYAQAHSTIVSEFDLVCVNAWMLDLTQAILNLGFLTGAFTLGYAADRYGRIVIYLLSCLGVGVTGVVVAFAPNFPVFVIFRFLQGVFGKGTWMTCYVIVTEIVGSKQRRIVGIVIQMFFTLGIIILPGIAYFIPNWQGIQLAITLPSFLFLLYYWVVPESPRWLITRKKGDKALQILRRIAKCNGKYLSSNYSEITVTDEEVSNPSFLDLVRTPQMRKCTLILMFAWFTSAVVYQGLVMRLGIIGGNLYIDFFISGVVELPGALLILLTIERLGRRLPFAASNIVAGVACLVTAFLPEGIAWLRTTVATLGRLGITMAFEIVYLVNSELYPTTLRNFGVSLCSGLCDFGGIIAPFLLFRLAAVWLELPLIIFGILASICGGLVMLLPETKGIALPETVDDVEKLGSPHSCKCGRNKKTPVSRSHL

hOATP2B1 = target: T3, hOATP2B1 (Homo sapiens, UniProt O94956); assay: Sorafenib uptake by HEK cells overexpressing hOATP2B1; type: in vitro ADME; conditions: Figure S4
T3 sequence (O94956 1-709): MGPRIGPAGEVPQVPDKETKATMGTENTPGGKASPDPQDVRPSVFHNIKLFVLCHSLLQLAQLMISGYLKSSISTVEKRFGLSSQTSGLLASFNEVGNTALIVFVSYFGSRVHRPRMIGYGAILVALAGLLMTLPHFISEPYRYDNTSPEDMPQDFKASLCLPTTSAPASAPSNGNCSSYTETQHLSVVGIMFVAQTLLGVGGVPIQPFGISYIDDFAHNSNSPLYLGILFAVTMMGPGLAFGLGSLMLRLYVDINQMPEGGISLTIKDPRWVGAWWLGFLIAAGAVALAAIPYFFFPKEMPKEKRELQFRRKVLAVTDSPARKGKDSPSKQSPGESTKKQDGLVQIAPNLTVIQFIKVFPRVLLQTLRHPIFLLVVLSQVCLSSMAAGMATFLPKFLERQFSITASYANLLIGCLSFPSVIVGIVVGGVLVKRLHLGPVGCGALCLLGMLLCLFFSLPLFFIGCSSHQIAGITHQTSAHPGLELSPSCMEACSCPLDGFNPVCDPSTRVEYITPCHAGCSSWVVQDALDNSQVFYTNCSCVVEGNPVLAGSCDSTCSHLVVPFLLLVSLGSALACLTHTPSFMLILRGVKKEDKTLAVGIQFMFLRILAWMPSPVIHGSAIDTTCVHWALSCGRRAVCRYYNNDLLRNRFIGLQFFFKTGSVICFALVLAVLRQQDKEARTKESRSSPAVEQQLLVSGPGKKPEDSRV

mOATP2B1 = target: T4, mOATP2B1 (Mus musculus, UniProt Q8BXB6); assay: Sorafenib uptake by HEK cells overexpressing mOATP2B1; type: in vitro ADME; conditions: Figure S4
T4 sequence (Q8BXB6 1-683): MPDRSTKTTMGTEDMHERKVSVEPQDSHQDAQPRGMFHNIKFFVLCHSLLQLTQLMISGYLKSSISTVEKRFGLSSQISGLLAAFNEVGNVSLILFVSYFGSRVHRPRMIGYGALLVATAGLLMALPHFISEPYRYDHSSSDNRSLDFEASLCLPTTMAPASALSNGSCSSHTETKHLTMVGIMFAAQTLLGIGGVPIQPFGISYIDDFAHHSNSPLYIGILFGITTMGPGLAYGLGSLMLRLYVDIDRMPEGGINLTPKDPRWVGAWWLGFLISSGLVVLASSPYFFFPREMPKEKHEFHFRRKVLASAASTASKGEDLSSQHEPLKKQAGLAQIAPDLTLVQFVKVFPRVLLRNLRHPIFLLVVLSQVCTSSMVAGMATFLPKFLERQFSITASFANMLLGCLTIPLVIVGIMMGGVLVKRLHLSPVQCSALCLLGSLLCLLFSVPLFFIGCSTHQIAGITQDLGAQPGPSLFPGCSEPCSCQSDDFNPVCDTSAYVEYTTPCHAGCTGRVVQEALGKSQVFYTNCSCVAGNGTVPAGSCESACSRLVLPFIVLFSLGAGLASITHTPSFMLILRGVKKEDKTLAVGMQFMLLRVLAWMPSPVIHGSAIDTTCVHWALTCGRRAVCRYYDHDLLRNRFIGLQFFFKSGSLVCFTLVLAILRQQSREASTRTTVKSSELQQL

OATP2B1 = target: T5, OATP2B1 (Mus musculus, UniProt Q8BXB6); assay: Sorafenib pharmacokinetics in OATP2B1-deficient mice; type: in vivo; conditions: Figure S4
T5 sequence (Q8BXB6 1-683): T4 sequence (Q8BXB6 1-683)

human OCT2 = human OCT2 (Homo sapiens, UniProt O15244); conditions: HEK293 cells overexpressing human OCT2, Figure S1
p38α (MAPK14) = p38α (MAPK14) (Homo sapiens, UniProt Q16539); conditions: live HEK293 cells, 60 min; BIRB796 5 nM, sorafenib 5 μM; DMSO 44.3 °C
p38α = conditions: cited from earlier work
[4] = cited from earlier work
OCT1 [5] = conditions: cited from earlier work

Chain of p38α (MAPK14) (Q16539 whole entry): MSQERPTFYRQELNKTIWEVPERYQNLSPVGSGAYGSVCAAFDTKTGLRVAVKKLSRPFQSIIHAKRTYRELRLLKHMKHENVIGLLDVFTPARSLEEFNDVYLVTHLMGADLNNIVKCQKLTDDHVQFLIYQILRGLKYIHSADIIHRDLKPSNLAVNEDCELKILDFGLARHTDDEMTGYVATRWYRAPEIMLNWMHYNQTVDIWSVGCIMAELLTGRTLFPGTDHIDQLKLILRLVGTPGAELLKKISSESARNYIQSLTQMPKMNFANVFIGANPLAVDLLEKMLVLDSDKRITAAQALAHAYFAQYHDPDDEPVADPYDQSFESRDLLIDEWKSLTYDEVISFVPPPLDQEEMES
Chain of human OCT2 (O15244 whole entry): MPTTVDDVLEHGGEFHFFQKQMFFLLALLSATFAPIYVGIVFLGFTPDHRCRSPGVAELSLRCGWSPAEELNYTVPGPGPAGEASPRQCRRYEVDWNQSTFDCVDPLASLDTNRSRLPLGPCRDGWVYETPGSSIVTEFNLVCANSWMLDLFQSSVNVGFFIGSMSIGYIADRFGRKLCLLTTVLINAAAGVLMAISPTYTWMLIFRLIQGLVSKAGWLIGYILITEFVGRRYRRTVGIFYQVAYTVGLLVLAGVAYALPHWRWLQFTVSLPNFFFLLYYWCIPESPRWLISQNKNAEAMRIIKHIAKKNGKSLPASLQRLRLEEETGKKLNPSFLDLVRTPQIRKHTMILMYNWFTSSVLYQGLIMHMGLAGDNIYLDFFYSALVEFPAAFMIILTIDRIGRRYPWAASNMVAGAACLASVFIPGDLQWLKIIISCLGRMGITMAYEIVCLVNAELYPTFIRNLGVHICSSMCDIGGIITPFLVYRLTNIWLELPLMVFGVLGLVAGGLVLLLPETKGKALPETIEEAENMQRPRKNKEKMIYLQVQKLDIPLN

C[n+]1ccc(-c2ccccc2)cc1 [MPP]
Increase of MPP uptake, OCT1 present vs absent (human OCT1 [1]; MPP 1 μM, 20 min): 13 fold | Uptake of MPP into oocytes in the presence of OCT1 (human OCT1 [1]; MPP 1 μM, 20 min, OCT1-expressing oocytes): 2.1 pmol/oocyte/20 min | Uptake of MPP into oocytes in the absence of OCT1 (human OCT1 [1]; MPP 1 μM, 20 min, nonexpressing oocytes): 0.16 pmol/oocyte/20 min | Effect of excess MPP on OCT1-mediated MPP uptake (human OCT1 [1]; […] MPP as inhibitor, 1 μM MPP as substrate): completely blocked

CC[N+](CC)(CC)CC [TEA]
TEA uptake compared to HEK293-OCT1 cells (HepG2 cells; HepG2, TEA 100 μM, 10 min): did not take up appreciable levels | TEA uptake compared to HEK293-OCT1 cells (Huh7 cells; Huh7, TEA 100 μM, 10 min): did not take up appreciable levels | Increase of TEA uptake in HEK293-OCT1 vs HEK293-VC cells (human OCT1 [2]; TEA 100 μM, 10 min): 23.5±1.2 fold

CCN1/C(=C/c2ccc3ccccc3[n+]2CC)C=Cc2ccccc21.[I-] [decynium22]
Interference with non-specific membrane binding of sorafenib (HeLa cells; HeLa cells): neither inhibitor interfered | Effect of inhibitor on sorafenib uptake in HEK293-OCT1 and HEK293-VC cells (human OCT1 [2]; decynium22 5 μM, sorafenib 0.2 μM, 10 min): decreased sorafenib uptake | Effect of inhibitor on TEA uptake in OCT1 transfectants (human OCT1 [2]; probe substrate TEA, OCT1-transfected HEK293 cells): almost completely abolished

CNC(=O)c1cc(Oc2ccc(NC(=O)Nc3ccc(Cl)c(C(F)(F)F)c3)cc2)cc[n+]1[O-] [sorafenib-N-oxide]
Hepatic levels (Oct1 [3]; sorafenib 10 mg/kg oral, 7.5 h, data not shown): below the lower limit of quantification | Pharmacokinetic parameters, Oct1-deficient vs wild-type mice (Oct1 [3]): minimal difference | Transport of sorafenib-N-oxide by OCT1 (human OCT1 [2]; 1 μM, HEK293 cells expressing VC or OCT1, time-dependent uptake): not transported by OCT1

CNC(=O)c1cc(Oc2ccc(NC(=O)Nc3ccc(Cl)c(C(F)(F)F)c3)cc2)ccn1 [sorafenib]
Transport of sorafenib by OCT3 (human OCT3): do not transport sorafenib | Characteristics of intracellular accumulation of sorafenib (HepG2 cells; HepG2): saturable, increased over time, and was found to be temperature-dependent | Characteristics of intracellular accumulation of sorafenib (Huh7 cells; Huh7): saturable, increased over time, and was found to be temperature-dependent | Apparent cellular uptake of sorafenib (HeLa cells; HeLa cells, sorafenib 0.2 μM, 10-min incubation): > 800 pmol/mg protein | Non-specific binding to cell membranes, share of total cell-associated drug (HeLa cells; confirms earlier observation of ref 25): up to 70% | Sorafenib uptake, HEK-VC vs hOATP2B1-overexpressing HEK cells (hOATP2B1): did not detect a different sorafenib uptake | Sorafenib uptake, HEK-VC vs mOATP2B1-overexpressing HEK cells (mOATP2B1): did not detect a different sorafenib uptake | Effect of OATP2B1 deficiency in mice on sorafenib pharmacokinetics (OATP2B1): did not detect | Transport of sorafenib by OCT2 (human OCT2): do not transport sorafenib | Apparent aggregation temperature of p38α (p38α (MAPK14)): 54.5 °C | IC50 (p38α): 0.038 µM | Fraction of dose found in urine [4]: About 19% | Inhibition of the transport of known OCT1 substrates (OCT1 [5]): poor inhibitor | Liver concentrations, Oct1-deficient vs wild-type mice (Oct1 [3]; sorafenib 10 mg/kg oral, 7.5 h): no significant differences | Pharmacokinetic parameters, Oct1-deficient vs wild-type mice (Oct1 [3]): minimal difference | Sorafenib uptake, OCT1-expressing vs nonexpressing oocytes (human OCT1 [1]; sorafenib 2 μM, 20 min, absence or presence of MPP […]): not different | Sorafenib uptake, HEK293-OCT1 vs HEK293-VC cells (human OCT1 [2]; sorafenib 0.2 μM, 10 min): no difference | Sorafenib transport at 4 °C compared with 37 °C (human OCT1 [2]; sorafenib 7.5 μM, HEK293 cells, independently of OCT1): reduced | Time at which sorafenib uptake reaches a plateau (human OCT1 [2]; sorafenib 7.5 μM, both HEK293-OCT1 and HEK293-VC cells): about 10 min

cyclosporin A
Interference with non-specific membrane binding of sorafenib (HeLa cells; HeLa cells): neither inhibitor interfered
